The source of these data is paper PMC12282101, “Heat shock protein 90 chaperone activity is required for hepatitis A virus replication” (Journal of Virology, 2025).

The subject of series [1] is 18f-NLuc reporter virus. The experiment in a line: microbe, parasite or virus in culture. The class given is cell-based, Hepatitis A virus. As to conditions: for activity at 10 µM: Hepatovirus A, Huh-7.5.1, 72 h, read-out: Normalized HAV production.
The subject of series [2] is Huh-7.5.1 cells. As to conditions: 10 µM.
Series [3] has as its system 18f-NLuc reporter virus. Particulars: for IC50: read-out: IC50, HAV replication by NLuc.
Series [4] relates to HM175/18f virus. The experiment in a line: microbe, parasite or virus in culture. As to conditions: Hepatovirus A, Huh-7.5.1, read-out: IC50, HAV replication by RT-qPCR. For orientation: Real-time PCR tracks product formation cycle by cycle.
In series [5] the test system is HM175/18f virus.
A further series is described as follows: in vitro. As to conditions: human.
The subject of the next series is HAV. As to conditions: cited from earlier work.
For series [6], the system named is Huh-7.5.1 cells. Particulars: Huh-7.5 or Huh-7.5.1 cells, RT-qPCR experiments.
The test system of series [7] is Huh-7.5.1 cells. The experiment in a line: Cell viability in the chemical screen (Cell TiterGlo). Particulars: 10 µM compound, 72 h. For orientation: ATP-based viability assays read luminescence as a measure of living cells.

Structures can show the parent of a compound that is named as a salt. Where two headings read alike, the source gives them in different places.

As to `CC(C)OC(=O)[C@H](C)N[P@](=O)(CO[C@H](C)Cn1cnc2c(N)ncnc21)Oc1ccccc1` [Tenofovir alafenamide], in the series on 18f-NLuc reporter virus [1], the activity at 10 µM was 141%. Further, the “Viability Percent DMSO” value with Huh-7.5.1 cells [2] came to 75 Percent DMSO.

For `COC(=O)N[C@H](C(=O)NNC[C@H](O)[C@H](Cc1ccccc1)NC(=O)[C@@H](NC(=O)OC)C(C)(C)C)C(C)(C)C` [Des(benzylpyridyl) Atazanavi], the “Normalized HAV production” value in the series with 18f-NLuc reporter virus [1] was determined as 0.67. Besides, in the series with Huh-7.5.1 cells [2], the “Viability Percent DMSO” value is on record as 159 Percent DMSO.

Take `CC(C)CN(C[C@@H](O)[C@H](Cc1ccccc1)NC(=O)O[C@H]1CO[C@H]2OCC[C@H]21)S(=O)(=O)c1ccc(N)cc1` [Darunavir]: the activity at 10 µM in the series on 18f-NLuc reporter virus [1] was found to be 99%. Besides, the “Viability Percent DMSO” value in the series on Huh-7.5.1 cells [2] is recorded as 106 Percent DMSO.

On to Vitamin E, for which, in the series on 18f-NLuc reporter virus [1], the “Normalized HAV production” value is 1.19. Besides, the “Viability Percent DMSO” value in the series with Huh-7.5.1 cells [2] stood at 97 Percent DMSO.

A word on the IC50: it is the concentration needed to halve the response being measured. JG98: in the series with 18f-NLuc reporter virus [3], the “Anti-HAV activity relative to CC50 (in words)” value was “only at concentrations close to their CC50” and the IC50 worked out at 534 nM. The CC50 with Huh-7.5 cells is more than 1000 nM.

With `CCc1cc(C(N)=O)ccc1-n1nc(C(C)C)c2c(-n3cnc(-c4cnn(C)c4)c3)ccnc21` [TAS116], the IC50 in the series on HM175/18f virus [4] was 84.3 nM. Besides, the “Blocking of HAV replication (in words)” value in the series on HM175/18f virus [5] was “highly active”. This compound gave a CC50 in “in vitro” of 835 nM.

On to `NC12CC3CC(CC(C3)C1)C2` [Amantadine hydrochloride], for which the activity at 10 µM in the series on 18f-NLuc reporter virus [1] was determined as 87%. Besides, the “Viability Percent DMSO” value in the series with Huh-7.5.1 cells [2] was found to be 111 Percent DMSO.

Turning to `S=C(NCCc1ccccn1)Nc1ccc(Br)cn1` [Trovirdine], in the series with 18f-NLuc reporter virus [1], the activity at 10 µM was found to be 71%. In addition, the “Viability Percent DMSO” value with Huh-7.5.1 cells [2] was 165 Percent DMSO.

As for `Clc1ccc(C(Cn2ccnc2)OCc2ccsc2Cl)c(Cl)c1` (centres unmarked) [Vagistat], in the series on 18f-NLuc reporter virus [1], the activity at 10 µM worked out at 109%. The “Viability Percent DMSO” value in the series on Huh-7.5.1 cells [2] was found to be 93 Percent DMSO.

Turning to `NC(=O)c1ncn([C@@H]2O[C@H](CO)[C@@H](O)[C@H]2O)n1` [Ribavirin], the activity at 10 µM in the series on 18f-NLuc reporter virus [1] is 112%. In addition, the “Viability Percent DMSO” value with Huh-7.5.1 cells [2] was found to be 117 Percent DMSO.

Consider `C=C1CC[C@@H]2[C@](C)(COC(=O)CCC(=O)[O-])[C@H](OC(=O)CCC(=O)O)CC[C@@]2(C)[C@@H]1/C=C/C1=CCOC1=O.[K+]` [Dehydroandrographolide Succinate Potasium Salt], for which the “Normalized HAV production” value in the series with 18f-NLuc reporter virus [1] turned out to be 1.19. The “Viability Percent DMSO” value in the series on Huh-7.5.1 cells [2] was 102 Percent DMSO.

In the case of `CC(C)c1cc(-c2n[nH]c(=O)n2-c2ccc3c(ccn3C)c2)c(O)cc1O` [STA9090], the IC50 in the series with HM175/18f virus [4] worked out at 12.1 nM. In addition, the “Blocking of HAV replication (in words)” value in the series with HM175/18f virus [5] is reported as “highly active”. Besides, the CC50 in the series “in vitro” was 147 nM.

Take `COc1ccccc1[C@H](Cn1c(=O)n(C(C)(C)C(=O)O)c(=O)c2c(C)c(-c3ncco3)sc21)OC1CCOCC1` [firsocostat]: the “HAV replication in cell culture (in words)” value in the series with HAV is on record as “potently inhibits”.

As for `N#Cc1ccc(COC[C@H]2O[C@@H](n3c(NCc4ccc(Cl)c(Cl)c4)nc4c(N)ncnc43)[C@H](O)[C@@H]2O)cc1` [VER155008], in the series on 18f-NLuc reporter virus [3], the “Anti-HAV activity relative to CC50 (in words)” value is “only at concentrations close to their CC50” and the IC50 worked out at 3320 nM. Besides, the CC50 with Huh-7.5 cells is more than 10000 nM.

On to `COc1cccc(-c2cc(F)ccc2[C@H]2Cc3nc(N)nc(C)c3C(=O)N2)n1` [HSP990], for which the IC50 in the series on HM175/18f virus [5] (read-out: IC50, HAV replication by RT-qPCR) is 2.2 nM. Moreover, the “Blocking of HAV replication (in words)” value with HM175/18f virus [5] (targeted screen of heat shock protein inhibitors, RT-qPCR) is given as “highly active”. In the series with Huh-7.5.1 cells [6], this compound returned a CC50 of 56.9 nM.

Turning to `CC(C)(C)Oc1cccc2nc(N)nc(N)c12` [HZ-1157], the “Normalized HAV production” value in the series with 18f-NLuc reporter virus [1] came to 2.12. In addition, the “Viability Percent DMSO” value in the series with Huh-7.5.1 cells [2] was found to be 16 Percent DMSO.

Consider `Nc1nc(=O)n([C@@H]2CS[C@H](CO)O2)cc1F` [Emtricitabine], for which the activity at 10 µM in the series on 18f-NLuc reporter virus [1] stood at 120%. Besides, the “Viability Percent DMSO” value in the series with Huh-7.5.1 cells [2] was 123 Percent DMSO.

In the case of `NCCCNCCCCNCCCN` [Spermine], the activity at 10 µM in the series with 18f-NLuc reporter virus [1] worked out at 96%. In addition, the “Viability Percent DMSO” value in the series on Huh-7.5.1 cells [2] came to 112 Percent DMSO.

For `CC1(C)S[C@@H]2[C@H](NC(=O)[C@H](NC(=O)N3CCNC3=O)c3ccccc3)C(=O)N2[C@H]1C(=O)O` [Azlocillin sodium], the activity at 10 µM in the series on 18f-NLuc reporter virus [1] stood at 132%. Besides, the “Viability Percent DMSO” value in the series on Huh-7.5.1 cells [7] was found to be 98 Percent DMSO.

As for `Cc1c(-c2cnccn2)ssc1=S` [Oltipraz], the activity at 10 µM in the series with 18f-NLuc reporter virus [1] is 113%. The “Viability Percent DMSO” value in the series on Huh-7.5.1 cells [2] is reported as 90 Percent DMSO.

On to `CCOCc1nc2c(N)nc3ccccc3c2n1CC(C)(C)O` [Resiquimod], for which, in the series on 18f-NLuc reporter virus [1], the activity at 10 µM was determined as 130%. Besides, the “Viability Percent DMSO” value in the series with Huh-7.5.1 cells [7] stood at 107 Percent DMSO.

For `O=C1CCC[C@@H]2[C@H]3CCC[N+]4([O-])CCC[C@@H](CN12)[C@@H]34` (some centres unmarked) [Oxymatrine], in the series with 18f-NLuc reporter virus [1], the activity at 10 µM turned out to be 100%. Moreover, the “Viability Percent DMSO” value in the series on Huh-7.5.1 cells [7] is reported as 92 Percent DMSO.

Regarding `C=C1[C@H](CO)[C@@H](O)C[C@@H]1n1cnc2c(=O)[nH]c(N)nc21` [Entecavir hydrate], the activity at 10 µM in the series with 18f-NLuc reporter virus [1] stood at 93%. Further, in the series with Huh-7.5.1 cells [7], the “Viability Percent DMSO” value was 125 Percent DMSO.

`Nc1ccn([C@@H]2O[C@H](CO)[C@@H](O)[C@@H]2O)c(=O)n1` [Cytarabine]: the activity at 10 µM with 18f-NLuc reporter virus [1] worked out at 66%. Besides, the “Viability Percent DMSO” value in the series on Huh-7.5.1 cells [7] is reported as 97 Percent DMSO.

Consider `O=c1[nH]c(=O)n([C@H]2C[C@H](O)[C@@H](CO)O2)cc1/C=C/Br` [Brivudine], for which the activity at 10 µM with 18f-NLuc reporter virus [1] was 94%. Further, in the series with Huh-7.5.1 cells [7], the “Viability Percent DMSO” value is 110 Percent DMSO.

As for `Nc1nc2c(ncn2CCC(CO)CO)c(=O)[nH]1` [Penciclovir], the activity at 10 µM in the series with 18f-NLuc reporter virus [1] came to 111%. The “Viability Percent DMSO” value in the series on Huh-7.5.1 cells [7] is given as 96 Percent DMSO.

As for `Cc1ccc(NC(=O)C(=O)NC2CC(C)(C)NC(C)(C)C2)cc1` [YYA-021], in the series on 18f-NLuc reporter virus [1], the “Normalized HAV production” value is recorded as 1.03. Also, the “Viability Percent DMSO” value with Huh-7.5.1 cells [2] came out at 121 Percent DMSO.

On to `O=c1c2ccccc2[se]n1-c1ccccc1` [Ebselen], for which the activity at 10 µM with 18f-NLuc reporter virus [1] was determined as 56%. Besides, in the series on Huh-7.5.1 cells [7], the “Viability Percent DMSO” value turned out to be 123 Percent DMSO.

`CO/N=C(\C(=O)N[C@@H]1C(=O)N2C(C(=O)O)=C(COC(C)=O)CS[C@H]12)c1csc(N)n1` [Cefotaxime sodium]: the activity at 10 µM in the series with 18f-NLuc reporter virus [1] was determined as 80%. In addition, in the series on Huh-7.5.1 cells [7], the “Viability Percent DMSO” value is 113 Percent DMSO.

With `COc1c(-c2ccc3cc(NS(C)(=O)=O)ccc3c2)cc(-n2ccc(=O)[nH]c2=O)cc1C(C)(C)C` [Dasabuvir], in the series with 18f-NLuc reporter virus [1], the activity at 10 µM was determined as 14%. Moreover, the “Viability Percent DMSO” value in the series on Huh-7.5.1 cells [7] is given as 116 Percent DMSO.

Regarding `O=C(/C=C\n1cnc(-c2cc(C(F)(F)F)cc(C(F)(F)F)c2)n1)NNc1ccccn1` [Verdinexor], the activity at 10 µM in the series on 18f-NLuc reporter virus [1] is 22%. In addition, the “Viability Percent DMSO” value in the series on Huh-7.5.1 cells [7] was determined as 174 Percent DMSO.

As for `O=C(O)c1cc(=O)[nH]c(=O)[nH]1` [Orotic acid], the activity at 10 µM in the series on 18f-NLuc reporter virus [1] came to 85%. Besides, in the series on Huh-7.5.1 cells [7], the “Viability Percent DMSO” value stood at 105 Percent DMSO.
